Source: US20220213052A1, “INHIBITORS OF RNA-BINDING PROTEINS, COMPOSITIONS THEREOF, AND THERAPEUTIC USES THEROF” (The University of North Carolina at Chapel Hill, priority 2019, published 2022)

Key:
[1] = biological target: T1, full-length human HuR protein (Homo sapiens, UniProt Q15717); assay: FP assay of HuR-Msi1 ARE binding inhibition; settings: HuR-Msi1 ARE interaction; read-out: HuR Ki via FP assay
T1 construct: full-length human HuR protein was produced by the KU COBRE-PSF Protein Purification Group; made in house
T1 sequence (Q15717 whole entry): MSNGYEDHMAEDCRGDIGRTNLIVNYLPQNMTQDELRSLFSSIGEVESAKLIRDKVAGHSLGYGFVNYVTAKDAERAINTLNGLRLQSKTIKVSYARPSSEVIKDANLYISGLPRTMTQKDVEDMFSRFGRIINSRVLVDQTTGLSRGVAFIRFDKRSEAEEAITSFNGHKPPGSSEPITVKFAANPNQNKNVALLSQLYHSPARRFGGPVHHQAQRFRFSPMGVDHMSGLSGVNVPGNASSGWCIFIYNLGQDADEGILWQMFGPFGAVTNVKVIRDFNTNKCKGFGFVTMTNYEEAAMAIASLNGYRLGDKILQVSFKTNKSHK
Outline: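 Fluorescence polarization competition using full-length human HuR protein and a 3′-fluorescein-labelled 16-nt Msi1 ARE RNA. A fluorescein-labelled degenerate 16-nt RNA served as negative control.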

[2] = tested on: triple-negative breast cancer cell line MDA-MB-231; assay: Cytotoxicity assay (WST-8), MDA-MB-231; format: cell-based; settings: Homo sapiens, 96 h incubation
Outline: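 Cells (3,000-5,000/well) were treated in triplicate with titrated compounds for 96 h, then WST-8 was added for 1-3 h at 37° C and absorbance read at 450 nm (650 nm correction). IC50 (50% growth inhibition vs vehicle) came from sigmoid curve fitting.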

[3] = tested on: MDA-MB-231 mouse xenograft; assay: MDA-MB-231 mouse xenograft model, KH-39 alone and with docetaxel; format: in vivo, mice; settings: after three-week treatment; KH-39 i.p. 50 mg/kg 5 times per week; TXT i.v.; ***P<0.001, ****P<0.0001, n=12
Description: Cytotoxicity assays (as described earlier in this disclosure) for various cancer cell lines will also be performed utilizing concentrations of a compound of the present technology that are below the lethal threshold for the compound for the particular cancer (a “sub-lethal concentration”) in combination with a chemotherapeutic compound (e.g., docetaxel or doxorubicin) to illustrate compounds of the present technology sensitize cancer cell lines to chemotherapy. By way of illustration in an in vivo model, in vivo antitumor efficacy of KH-39 was examined in combination with docetaxel (a first-line chemotherapy for human breast cancer) in a MDA-MB-231 mouse xenograft model. For this, tumor-bearing female athymic mice were provided according to the protocols described earlier in the present disclosure and were randomized into four groups. One group of mice was treated with KH-39 (i.p. 50 mg/kg, 5 times per week), one group with docetaxel (TXT; i.v. at the dosages and time intervals indicated in FIG. 12), one group with a combination of KH-39 and TXT (KH-39 i.p. 50 mg/kg, 5 times per week and TXT i.v. at the dosages and time intervals indicated in FIG. 12), and one group of mice as the vehicle control. FIG. 12 illustrates the results, providing the tumor growth curves for each group.

[4] = tested on: MDA-MB-231 HuR knockout clones (HuR KO1 and HuR KO2); assay: Cytotoxicity against HuR knockout clones of MDA-MB-231; format: cell-based; settings: HuR KO1 and HuR KO2 vs MDA-MB-231 and sgControl
Protocol: The cytotoxicity of various compounds of the present technology in several cancer cell lines (pancreatic cancer cell line MIAPaCa-2, triple-negative breast cancer cell line MDA-MB-231, and colon cancer cell lines HCT116, HCT116 β/W, and RKO) was assessed by a cytotoxicity assay. Cells were seeded in 96-well culture plates (3,000-5,000 cells/well) and treated with titrated compounds in triplicate. After 96 h incubation, cell growth medium was removed and proliferation reagent WST-8 (Sigma) was added to each well and incubated at 37° C. for 1-3 h. Absorbance was then measured with a plate reader at 450 nm with correction at 650 nm. The results were expressed as the percentage of absorbance of treated wells versus that of vehicle control. IC50, the drug concentration causing 50% growth inhibition, was calculated via sigmoid curve fitting using GraphPad Prism 5.0. The results for those compounds tested against MIAPaCa-2 and MDA-MB-231 are provided in Table 1; the results for those compounds tested against colon cancer cell lines HCT116, HCT116 β/W, and RKO are provided in Table 3.
The cytotoxicity of KH-39 and KH-58 against HuR knockout clones was probed by the same assay as described above. […]

[5] = tested on: 2LMP subclone generated from MDA-MB-231; assay: 2LMP mouse xenograft model; format: in vivo
Description: Xenograft and orthotopic models of cancer cell lines with HuR overexpression will be used to test the in vivo therapeutic potential of compounds of the present technology. A person of ordinary skill in the art is well apprised of cancer cell lines with HuR overexpression, as exemplified by references 2-12 cited herein in the “References” section. Tumor models will be established as described in Xu, L., et al., (−)−Gossypol enhances response to radiation therapy and results in tumor regression of human prostate cancer. Mol Cancer Ther, 2005. 4(2): p. 197-205.35 Briefly, 4-6 week old athymic NCr-nu/nu mice or 8-10-week-old NOD/SCID mice will be inoculated subcutaneously on both sides of flanks with 0.1 ml of a cell suspension of 1-5×10^6 tumor cells. Tumors will be allowed to grow to approximately 100 mm^3, when the blood vessel supplies to the tumor are established. Each group will contain at least 5 animals with at least 10 tumors across the five animals. Animals will be given compounds or vehicle i.v., i.p. or q.o.d.×2-3 weeks as described in Xu, L., et al., Systemic p53 gene therapy of cancer with immunolipoplexes targeted by anti-transferrin receptor scFv. Mol Med, 2001. 7(10): p. 723-34 and Xu, L., et al., Self-assembly of a virus-mimicking nanostructure system for efficient tumor-targeted gene delivery. […] The tumor sizes and animal body weights will be measured twice a week. […]

Musashi 2 (Msi2) = Musashi 2 (Msi2) (Homo sapiens, UniProt Q96DH6); assay: Msi2 FP assay; format: binding; settings: cell marked (RRM1), read-out: Msi2 (Ki) (RRM1)
Musashi 2 (Msi2), sequence (Q96DH6 whole entry, species assumed): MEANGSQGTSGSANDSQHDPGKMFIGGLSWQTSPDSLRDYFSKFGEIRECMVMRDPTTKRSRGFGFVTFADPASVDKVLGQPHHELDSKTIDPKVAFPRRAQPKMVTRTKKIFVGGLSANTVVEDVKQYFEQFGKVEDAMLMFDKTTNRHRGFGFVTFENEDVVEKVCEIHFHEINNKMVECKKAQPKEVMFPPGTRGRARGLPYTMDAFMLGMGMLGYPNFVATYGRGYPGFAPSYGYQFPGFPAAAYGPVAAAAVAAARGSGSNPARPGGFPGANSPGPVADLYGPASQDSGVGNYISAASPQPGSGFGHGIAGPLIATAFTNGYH

For `CC(C)(C)c1ccc(C(=O)Nc2ccc3[nH]c(C(=O)NO)cc3c2)cc1` [KH-39, 5-(4-(tert-butyl)benzamido)-N-hydroxy-1H-indole-2-carboxamide], which Ki [1] is on record?
Its Ki is 0.65 µM.

And the IC50 [2]?
Its IC50 is 4.74 µM.

What about the “relative tumor sizes versus control group” value [3] of the same compound?
Its value is “significantly smaller than those in control group”.

And the “IC50 of HuR KO clones versus parental cells and vector control cells” value [4]?
The value was “two to three folds higher IC50 values”.

And the “bodyweight gain of mice” value ([5]; 2LMP xenograft model)?
The value was “gain bodyweight with similar trend to those in vehicle control group”.

And the “tumor growth compared to the vehicle control” value ([5]; after three-week treatment, ****P<0.0001, n=10)?
Its value is “significantly decreased tumor growth”.

What about the Ki (Musashi 2 (Msi2)) of the same compound?
Its Ki is 3.15 µM.
